Patent publication US20200297820A1, “STIMULATION OF HUMAN MEIBOMIAN GLAND FUNCTION” (The Schepens Eye Research Institute, Inc., priority 2013, published 2020)

Columns and labels:
[1] = test system: immortalized human meibomian gland epithelial cells; test: LipidTOX green neutral lipid staining (lipid accumulation); format: cell-based; details: for lipid accumulation: 10^−8 M
Protocol: (§1) As an example of these experiments, immortalized human meibomian gland epithelial cells were cultured in the presence or absence of 10% fetal bovine serum. Cells were treated with an ethanol vehicle or azithromycin (10 μg/ml; Santa Cruz Biotechnology) for varying time periods. Cellular morphological appearance was recorded, cells were counted with a hemocytometer, and lipid accumulation was assessed by staining the cells with LipidTOX green neutral lipid stain (Invitrogen, Grand Island, N.Y.), according to reported methods. Staining fluorescent intensities were quantified by using ImageJ (http://rsbweb.nih.gov/ij/index.html). Statistical analyses were performed with Student's t-test (two-tailed, unpaired).
(§2) Immortalized human meibomian gland epithelial cells (IHMGECs; passages 20-22) were cultured in the presence or absence of 10% fetal bovine serum. Cells were treated with the ethanol vehicle or azithromycin (10 μg/mL) for varying periods. Cellular morphological appearance was recorded, cells were counted with a hemocytometer, and lipid accumulation was assessed by staining cells with LipidTOX green neutral lipid stain (Invitrogen Corp). Staining fluorescent intensities were quantified using ImageJ software (http://rsbweb.nih.gov/ij/index.html). Statistical analyses were performed with t test (2-tailed, unpaired).
Cell numbers were enumerated with a hemocytometer. Cellular lipid and lysosome accumulation were examined by staining cells with: Filipin III (a fluorometric probe for identifying unesterified cholesterol), LipidTOX green neutral lipid stain, and LysoTracker® Red DND-99 (a fluorescent technique designed for labeling acidic organelles such as lysosomes). Lysosomal lamellar bodies were identified by transmission electron microscopy. In brief, after culture and treatment on 24 mm polycarbonate membrane transwell inserts (0.4 μm pore size), cells were fixed in a solution of 2% formaldehyde+2.5% glutaraldehyde, in 0.08 M sodium cacodylate buffer, pH 7.4, post-fixed with 2% osmium tetroxide in 0.1 M sodium cacodylate buffer, and stained en bloc with 2% aqueousuranyl acetate. […] Cross sections (1 μM) were stained with 1% toluidine blue in 1% sodium tetraborate solution. Ultra-thin sections (60-90 nm) were imaged with a transmission electron microscope interfaced with a digital CCD camera. For biochemical assessments, cellular lipids were extracted with chloroform and methanol from samples with the same amount of protein. Lipids were then evaluated with high-performance thin-layer chromatography. With regard to the staining results, three Filipin, five LipidTox and four LysoTracker studies were conducted, and each experiment was performed in duplicate. Four random pictures were taken of each group, and four random areas were selected for the measurement of fluorescent intensities. The HPTLC experiments were performed in duplicate more than three times. Image data were quantified with ImageJ (http://rsbweb.nib.gov/ij/index.html). Electron microscopic analyses were performed in triplicate.
The experiment included green neutral lipid staining. Immortalized human meibomian gland epithelial cells were cultured in slides treated to facilitate cell growth in FBS-containing medium in the presence or absence of IGF-1, anti-IGF-1R, and/or GH. Media were replaced every 2 to 3 days for a total of 6 days, at which time cells were washed and fixed in 4% paraformaldehyde for 30 minutes. After additional washes, cells were stained with green neutral lipid stain in a humid chamber for 30 minutes. Coverslips were mounted on slides with an antifade reagent that contains 4′,6-diamidino-2-phenylindole nuclear stain and permitted to dry overnight before imaging with a microscope. Fluorescence intensity was quantified using image-processing software.

[2] = test system: immortalized human meibomian gland cells; test: 13-cis RA-induced late apoptosis/necrosis; format: cell-based
[3] = test system: human meibomian gland epithelial cells; test: Immunoblot of signaling pathways (Akt, FoxO1, ERK, JAK2/STAT5); format: cell-based
Protocol: The disclosure turns now to sodium dodecyl sulfate-polyacrylamide gel, electrophoresis, and immunoblots. Cells were directly lysed in Laemmli buffer supplemented with 1% protease inhibitor cocktail (Sigma-Aldrich) and 5% β-mercaptoethanol (Sigma-Aldrich). Lysates were heated at 95° C. for 10 minutes, separated by sodium dodecyl sulfate-polyacrylamide gel electrophoresis on 10% Tris-glycine precast gels, and transferred to polyvinylidene difluoride membranes. Rabbit or mouse antibodies used were specific for phosphorylated Akt (p-Akt), pan-Akt, p-FoxO1, FoxO1, p-JAK2, JAK2, and β-actin; for p-ERK, ERK-2, STAT5, and the precursor form of SREBP-1; and for p-STAT5. Membranes were blocked with 5% bovine serum albumin in Tris-buffered saline containing 0.01% polysorbate 20. All primary antibodies were diluted to 1:1000 in blocking buffer except for p-Akt (1:4000), p-ERK (1:2000), ERK-2 (1:4000), SREBP-1 (1:200), and β-actin (1:10 000). Horseradish peroxidase-conjugated secondary antibodies were goat anti-rabbit IgG and Fc-specific goat anti-mouse IgG diluted to 1:5000. Proteins were visualized with enhanced chemiluminescent substrate or with ultrasensitive chemiluminescent substrate. Densitometry was performed with image-processing software.
To determine whether IGF-1 promotes the phosphorylation of Akt in human meibomian gland epithelial cells, cells were cultured under proliferating or differentiating conditions and then exposed to IGF-1 for 15 minutes.
FIGS. 9a, 9b, and 9c illustrate the effects of insulin-like growth factor 1 (IGF-1) and growth hormone (GH) on signaling pathways in human meibomian gland epithelial cells. Cells were cultured in keratinocyte serum-free medium containing epidermal growth factor (EGF) and bovine pituitary extract (BPE) for 2 days and then keratinocyte serum-free medium alone overnight or were cultured in 10% fetal bovine serum (FBS) medium for 5 to 7 days and in 1% FBS medium overnight. Cells were then incubated with vehicle or a 10 μM concentration of LY294002 for 2 hours, followed by IGF-1 or GH treatment for 15 minutes. Cell lysates were evaluated on immunoblotting. […] These experiments were repeated at least 3 times with similar results.
To assess whether GH activates Akt, FoxO1, ERK-2, or its classic (i.e., JAK2 and STAT5) signaling pathways in human meibomian gland epithelial cells, cells were cultured in proliferating or differentiating media, and were exposed to a 10 nM concentration of GH for 15 minutes, and processed for immunoblot analyses. […]

[4] = test system: immortalized human meibomian gland epithelial cells; test: Cell proliferation, cells counted with a hemocytometer; format: cell-based; details: insulin
Protocol: as §1, §2
Regarding cell proliferation assay, the human meibomian gland epithelial cells and LNCaP cells were cultured in 12-well plates in designated media and then exposed to IGF-1 or GH for defined periods. At experimental termination, cells were trypsinized and counted with a hemocytometer.
FIGS. 10a, 10b, and 10c illustrate the influence of IGF-1 on the proliferation of human meibomian gland epithelial cells. Cells were cultured (100,000 cells/well in 12-well plates, 3 wells per group) in basal, proliferating, and/or differentiating media and treated with IGF-I for 2 to 6 days. […] P values are for post hoc comparison compared with the control value. […] ANOVA indicates analysis of variance; EGF-BPE, epidermal growth factor-bovine pituitary extract; KSFM, keratinocyte serum-free medium. All comparisons are with control value. Whiskers mark SEM. aP<0.05 compared with the control value, post hoc test.

[5] = one trial; cited from earlier work

CC(=O)[C@H]1CC[C@H]2[C@@H]3CCC4=CC(=O)CC[C@]4(C)[C@H]3CC[C@]12C [progesterone]
lipid accumulation [1]: marked lipid accumulation

CC1=C(/C=C/C(C)=C/C=C/C(C)=C\C(=O)O)C(C)(C)CCC1 [13-cis RA]
induction of late apoptosis/necrosis [2]: induced late apoptosis/necrosis

Insulin: insulin, an IGF-1 analogue
activation of AKT signaling pathway ([3]; cells in serum-containing medium 5-7 days before treatment): dose-dependent manner
cell proliferation [4]: promotes meibomian gland epithelial cell proliferation
accumulation of neutral lipids ([1]; insulin): promotes meibomian gland epithelial cell accumulation of neutral lipids

C[C@]12CCC(=O)C[C@@H]1CC[C@@H]1[C@@H]2CC[C@]2(C)[C@@H](O)CC[C@@H]12 [Dihydrotestosterone]
phosphorylation of extracellular-signal-regulated kinases (ERKs) [3]: increase the phosphorylation
lipid accumulation [1]: marked lipid accumulation

B1: figitumumab: human IgG2 monoclonal antibody that prevents the binding of IGF-1 to its receptor (antibody, chains of the INN, looked up)
heavy: EVQLLESGGGLVQPGGSLRLSCTASGFTFSSYAMNWVRQAPGKGLEWVSAISGSGGTTFYADSVKGRFTISRDNSRTTLYLQMNSLRAEDTAVYYCAKDLGWSDSYYYYYGMDVWGQGTTVTVSSASTKGPSVFPLAPCSRSTSESTAALGCLVKDYFPEPVTVSWNSGALTSGVHTFPAVLQSSGLYSLSSVVTVPSSNFGTQTYTCNVDHKPSNTKVDKTVERKCCVECPPCPAPPVAGPSVFLFPPKPKDTLMISRTPEVTCVVVDVSHEDPEVQFNWYVDGVEVHNAKTKPREEQFNSTFRVVSVLTVVHQDWLNGKEYKCKVSNKGLPAPIEKTISKTKGQPREPQVYTLPPSREEMTKNQVSLTCLVKGFYPSDIAVEWESNGQPENNYKTTPPMLDSDGSFFLYSKLTVDKSRWQQGNVFSCSVMHEALHNHYTQKSLSLSPG
light: DIQMTQFPSSLSASVGDRVTITCRASQGIRNDLGWYQQKPGKAPKRLIYAASRLHRGVPSRFSGSGSGTEFTLTISSLQPEDFATYYCLQHNSYPCSFGQGTKLEIKRTVAAPSVFIFPPSDEQLKSGTASVVCLLNNFYPREAKVQWKVDNALQSGNSQESVTEQDSKDSTYSLSSTLTLSKADYEKHKVYACEVTHQGLSSPVTKSFNRGEC
most common adverse effect [5]: DED
